Results: patent US5229116A, “Administration of pharmaceutical agents” (priority 1989, dated 1993)
Values belong to the compound of their own block, whether it stands above or below them.

Assay: In vivo pharmacokinetic studies of dihydropyridines given orally with water, grapefruit juice or orange juice (plasma concentration, GC analysis)
Design: species or system human (healthy subjects, hypertensive patients)
Conditions: human, po, mean; for AUC(0-inf): zero to infinity
Method: Hypertensive patients and healthy volunteers were given commercially available formulations of dihydropyridines in the morning after an overnight fast. The tablets were taken either with water, orange juice, or, as a source of flavonoids, 200 ml grapefruit juice. This contains about 150 mg of flavonoids, either as aglycones or glycosides.
The protocols for the five studies are shown on Table 2.
Blood samples for the analysis of the dihydropyridine and the first metabolite were drawn before and at frequent intervals after dose via an indwelling antecubital cannula. Samples were centrifuged and the plasma frozen (-20° C.) until analysis.
The maximum plasma concentration, Cmax, and the corresponding time to reach peak concentration, tmax, were recorded from the individual plasma concentration time curves of the dihydropyridine and its first metabolite. The area from zero to infinity was calculated adding the residual area to the area from zero to last determinable plasma concentration value by using the slope of the log plasma concentration time curve in the 3 to 8 hour interval after dose.

[1] = plasma, 10 mg, nitrendipine 10 mg tablets, healthy subjects, n = 3, grapefruit juice
[2] = plasma, 10 mg, nitrendipine 10 mg tablets, healthy subjects, n = 3, water
[3] = plasma, felodipine ER tablets, healthy subjects, n = 9, grapefruit juice
[4] = plasma, felodipine ER tablets, healthy subjects, n = 9, water
[5] = plasma, felodipine plain tablets, healthy subjects, n = 9, grapefruit juice
[6] = plasma, felodipine plain tablets, healthy subjects, n = 9, water
[7] = plasma, felodipine plain tablets, patients, n = 6, grapefruit juice
[8] = plasma, felodipine plain tablets, patients, n = 6, orange juice
[9] = plasma, felodipine plain tablets, patients, n = 6, water

SMILES: CCOC(=O)C1=C(C)NC(C)=C(C(=O)OC)C1c1cccc([N+](=O)[O-])c1 (stereo not drawn) [Nitrendipine]
Tmax (in vivo, 10 mg, nitrendipine 10 mg tablets, healthy subjects, n = 3, grapefruit juice): 1.3 ± 0.5 h | Tmax (in vivo, 10 mg, nitrendipine 10 mg tablets, healthy subjects, n = 3, water): 1.5 h | Cmax [1]: 8.9 ± 4.8 nM | AUC(0-inf) [1]: 0.035 ± 0.0195 µM·h | Cmax [2]: 3.7 ± 1.8 nM | AUC(0-inf) [2]: 0.0151 ± 0.0058 µM·h

Cmax [3]: 8.9 ± 3.3 nM | Tmax [3]: 3.2 ± 0.8 h | AUC(0-inf) [3]: 0.0478 ± 0.0157 µM·h | Cmax [4]: 3.4 ± 1.6 nM | Tmax [4]: 3.4 ± 0.9 h | AUC(0-inf) [4]: 0.0274 ± 0.0123 µM·h | Cmax [5]: 16.3 ± 7.1 nM | Tmax [5]: 2.1 ± 0.9 h | AUC(0-inf) [5]: 0.065 ± 0.0263 µM·h | Cmax [6]: 6.6 ± 3.6 nM | Tmax [6]: 1.3 ± 0.6 h | AUC(0-inf) [6]: 0.0228 ± 0.0106 µM·h | Cmax [7]: 28.7 ± 7.6 nM | Tmax [7]: 2.1 ± 0.5 h | AUC(0-inf) [7]: 0.121 ± 0.045 µM·h | Cmax [8]: 16.4 ± 7.8 nM | Tmax [8]: 1.9 ± 0.1 h | AUC(0-inf) [8]: 0.0514 ± 0.0222 µM·h | Cmax [9]: 13.2 ± 5 nM | Tmax [9]: 1.1 ± 0.5 h | AUC(0-inf) [9]: 0.0484 ± 0.0237 µM·h
SMILES: CCOC(=O)C1=C(C)NC(C)=C(C(=O)OC)C1c1cccc(Cl)c1Cl (stereo not drawn) [Felodipine]
